From patent US8383637B2, “2-amino-quinazoline derivatives useful as inhibitors of β-secretase (BACE)” (Jansssen Pharmaceutica N.V., priority 2004, dated 2013)
Several values for one entry are separate records, joined by “and”; a condition that tells them apart may be missing. Equal values may be shown once.

Biological target: T1, β-secretase(BACE) (Homo sapiens, UniProt P56817)
T1 construct: purchased Panvera
Assay: BACE FS1% Inhibition Assay
Type: biochemical
Details: FS1 substrate
Protocol: BACE FS1% Inhibition Assay The following reagents were used in this assay: sodium acetate, PEG8000 (Sigma), DMSO, HEPES, FS1 substrate [[…]] […] The FS1-substrate stock solution was prepared in DMSO as a 10 mg/mL solution. The FS1-substrate working solution was prepared by diluting the 10 mg/mL stock solution with substrate assay buffer to a final concentration of 300 μg/mL. The β-secretase (BACE) working solution was prepared by diluting a 0.83 mg/mL BACE stock solution with enzyme assay buffer to a final concentration of 4 μg/mL. Test compounds were dissolved in DMSO to 10 mM. […] The screening procedure for this assay was as follows: 15 μL of BACE working solution was pipetted into each well of a 96-well plate. To each well was then pipetted 2 μL of test compound at the selected concentration. Test compound and BACE were then mixed with a pipettor and incubated for 20 min at room temperature. To each well was then added 10 μL of the FS1 substrate working solution. The plates were then incubated for 1 hour at room temperature. […] The procedure for the blank was as follows. 15 μL of assay buffer was pipetted into each well to be used as a blank control. To each well was then added 2 μL of vehicle and 10 μL of FS1-substrate working solution. The plates were then incubated for 1 hour at room temperature. […] The procedure for the positive control was as follows: 15 μL of BACE working solution was pipetted into each well to be used as a positive control. To each well was then pipetted 2 μL of vehicle. Vehicle and BACE were then mixed with a pipettor and incubated for 20 min at room temperature. To each well was then added 10 μL of the FS1 substrate working solution. The plates were then incubated for 1 hour at room temperature. […] For test compounds, % inhibition was determined at each concentration as follows: [formula]

T1 sequence (P56817 46-501): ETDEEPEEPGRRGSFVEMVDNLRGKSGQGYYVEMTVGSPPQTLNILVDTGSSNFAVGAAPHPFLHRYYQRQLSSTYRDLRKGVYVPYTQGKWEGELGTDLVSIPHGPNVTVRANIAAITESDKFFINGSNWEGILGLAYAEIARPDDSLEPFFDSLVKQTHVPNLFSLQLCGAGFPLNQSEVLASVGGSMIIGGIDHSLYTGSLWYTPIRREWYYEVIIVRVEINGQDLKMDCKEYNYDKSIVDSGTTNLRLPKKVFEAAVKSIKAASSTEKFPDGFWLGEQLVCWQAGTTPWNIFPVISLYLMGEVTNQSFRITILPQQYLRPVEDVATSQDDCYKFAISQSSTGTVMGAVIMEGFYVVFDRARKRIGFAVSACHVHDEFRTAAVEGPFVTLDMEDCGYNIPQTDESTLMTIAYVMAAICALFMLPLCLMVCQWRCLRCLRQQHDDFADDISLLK

Structure (SMILES)	% Inhibition (FS) 0.3 μM (0.3 μM test compound) [%]	% Inhibition (FS) 1 μM (1 μM test compound) [%]	% Inhibition (FS) 3 μM (3 μM test compound) [%]	also measured
CC(=O)c1cccc(-c2ccc3c(c2)CN(CCNC(=O)CC2CCCC2)C(N)=N3)c1 [Compound 582]	<30	<30	<30	–
CNC(=O)c1ccccc1Sc1ccc2c(c1)CN(Cc1cccc(C(=O)N(C)C3CCCCC3)c1)C(N)=N2 [Compound 416]	<30	<30	−3	–
NC1=Nc2ccc(Oc3ccccc3)cc2CN1CCCNC1CCCCC1 [Compound 403]	<30	<30	66	–
CN(C)c1cccc(Oc2ccc3c(c2)CN(Cc2cccc(C(=O)N(C)C4CCCCC4)c2)C(N)=N3)c1 [Compound 479]	<30	<30	81	–
COC1CCCC(C(=O)NCCN2Cc3cc(C4=CCCC4)ccc3N=C2N)C1 (centres unmarked) [Compound 706]	–	–	–	% Inhibition (FS) (0.3 μM test compound): <30%; % Inhibition (FS) (1 μM test compound): <30%; % Inhibition (FS) (3 μM test compound): <30%
NC1=Nc2ccc(Br)cc2CN1CCC(=O)NC12CC3CC(CC(C3)C1)C2 [Compound 804]	–	–	–	inhibition at 0.3 µM (0.3 μM test compound, read-out: % Inhibition (FS)): < 30%; inhibition at 1 µM (1 μM test compound, read-out: % Inhibition (FS)): < 30%; inhibition at 3 µM (3 μM test compound, read-out: % Inhibition (FS)): < 30%
CN1CCCC1CCNC(=O)c1cccc(CN2Cc3cc(Oc4ccccc4)ccc3N=C2N)c1 (centres unmarked) [Compound 222]	<30	<30	<30	–
CN(C(=O)c1cccc(C(CC2CCCCC2)N2Cc3cc(Oc4ccccc4)ccc3N=C2N)c1)C1CCCCC1 (centres unmarked) [Compound 310]	<30	<30	57	–
NC1=Nc2ccc(-c3cccc(C(F)(F)F)c3)cc2CN1CCNC(=O)Cc1ccccc1 [Compound 600]	<30	<30	41	–
CCCCc1ccc(C(=O)NCCN2Cc3cc(Oc4ccccc4)ccc3N=C2N)cc1 [Compound 157]	–	–	<30	% Inhibition (FS) 10 μM (10 μM test compound): 50%
CC(C)(C)NS(=O)(=O)c1ccccc1-c1ccc2c(c1)CN(CCNC(=O)C1CCCCC1)C(N)=N2 [Compound 542]	<30	<30	73	–
COC1CCCC(C(=O)NCCN2Cc3cc(-c4ccccc4)ccc3N=C2N)C1 (centres unmarked) [Compound 703]	–	–	–	% Inhibition (FS) (0.3 μM test compound): <30%; % Inhibition (FS) (1 μM test compound): 46%; % Inhibition (FS) (3 μM test compound): 83%
COC(=O)Cc1cccc(CN(C)C(=O)CCC(C2CCCCC2)N2Cc3cc(Oc4ccccc4)ccc3N=C2N)c1 (centres unmarked) [Compound 775]	–	–	–	% Inhibition (FS) (0.3 μM test compound): <30%; % Inhibition (FS) (1 μM test compound): 62%; % Inhibition (FS) (3 μM test compound): 111%
CN(C(=O)c1cccc(CN2Cc3cc(Oc4ccccc4C4CCCC4)ccc3N=C2N)c1)C1CCCCC1 [Compound 512]	<30	<30	51	–
NC1=Nc2ccc(Oc3ccccc3)cc2CN1C1CCN(C(=O)C23CC4CC(CC(C4)C2)C3)CC1 [Compound 524]	<30	<30	44	–
CC(C)N1CCC(N(C)C(=O)CC[C@@H](C2CCCCC2)N2Cc3cc(Oc4ccccc4)ccc3N=C2N)CC1 [Compound 728]	–	–	–	% Inhibition (FS) (0.3 μM test compound): 43%; % Inhibition (FS) (1 μM test compound): 58%; % Inhibition (FS) (3 μM test compound): 97%
CC(=O)Nc1ccc(C(=O)NCCN2Cc3cc(-c4ccccc4)ccc3N=C2N)cc1 [Compound 591]	<30	<30	<30	–
CC(=O)N1CCC(C(=O)NCCN2Cc3cc(C4=CCCCC4)ccc3N=C2N)CC1 [Compound 705]	–	–	–	% Inhibition (FS) (0.3 μM test compound): <30%; % Inhibition (FS) (1 μM test compound): <30%; % Inhibition (FS) (3 μM test compound): <30%
COc1ccccc1-c1ccc2c(c1)CN(CCNC(=O)C1CCN(C(C)=O)CC1)C(N)=N2 [Compound 491]	<30	<30	–	% Inhibition (FS) 3 μM (3 μM test compound, 3 µM): 44% and <30%
